In this experiment the target is Acetylcholinesterase (Homo sapiens, UniProt P22303). The experiment is described as follows: Inhibition of AChE (unknown origin) using acetylthiocholine as substrate preincubated for 15 mins followed by substrate addition measured every minute for 15 mins by Ellman's method. (In general: In Ellman's method for cholinesterases, released thiocholine reacts with DTNB.)
Chain of Acetylcholinesterase (P22303 whole entry): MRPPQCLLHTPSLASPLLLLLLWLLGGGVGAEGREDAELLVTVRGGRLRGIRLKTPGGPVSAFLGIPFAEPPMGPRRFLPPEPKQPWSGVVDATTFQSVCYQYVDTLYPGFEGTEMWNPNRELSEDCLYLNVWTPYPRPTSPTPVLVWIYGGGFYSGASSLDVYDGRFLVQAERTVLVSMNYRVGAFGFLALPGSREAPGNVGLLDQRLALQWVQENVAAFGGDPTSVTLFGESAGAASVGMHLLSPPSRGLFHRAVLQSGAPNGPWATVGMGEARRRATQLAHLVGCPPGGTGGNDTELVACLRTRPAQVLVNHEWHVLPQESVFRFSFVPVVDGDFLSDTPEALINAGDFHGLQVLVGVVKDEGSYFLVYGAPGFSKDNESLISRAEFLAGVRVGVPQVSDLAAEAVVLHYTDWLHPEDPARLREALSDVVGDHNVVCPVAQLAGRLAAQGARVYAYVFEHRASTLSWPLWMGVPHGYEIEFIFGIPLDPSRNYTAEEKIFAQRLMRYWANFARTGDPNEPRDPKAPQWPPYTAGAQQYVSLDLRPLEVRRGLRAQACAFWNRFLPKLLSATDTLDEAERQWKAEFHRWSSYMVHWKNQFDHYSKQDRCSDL

On to `CC1C[C@H]2[C@H](O)[C@@H]3O[C@]4(C1)OC1CCN5CCCC24[C@]13C5` (stereo partly drawn), for which the IC50 is > 30 µM.

Regarding `C[C@@H]1C[C@H]2Cc3ncc(C4CCCCN4)cc3[C@]3(C1)NCCC[C@H]23` (stereo partly drawn), the concentration for half-maximal inhibition (IC50) was > 30 µM.

Turning to `C=C[C@@H]1[C@@H]2CC3=C(CCC(=O)N3)[C@@]1(N)C[C@H](C)C2`, the IC50 is > 30 µM.

For orientation: IC50 means the concentration that inhibits the measured activity by half. A lower IC50 goes with higher potency.

The record behind these values is ChEMBL document CHEMBL4330157, “Lycopodium Alkaloids: Lycoplatyrine A, an Unusual Lycodine-Piperidine Adduct from Lycopodium platyrhizoma and the Absolute Configurations of Lycoplanine D and Lycogladine H” (J Nat Prod, 2019).
